This passage reports deaths results from USRE32868E, “Antihyperlipidemic compositions” (Research Corporation, priority 1985, dated 1989).

The data set has as its system mice. Description: Acute toxicity (LD50) in mice. As to conditions: 2 g/kg. The class given is in vivo. An excerpt:
They also are non-toxic. […] Moreover, there is no evidence that the weight of any of the major organs is altered as a result of treatment with compounds used in the invention.

With `CC(=O)CN1C(=O)c2ccccc2C1=O` [1-N--Phthalimidopropan-2-one], the deaths result is “no deaths were observed”.
